In ChEMBL document CHEMBL1123416, “Imidazo[2,1-b]benzothiazoles. 2. New immunosuppressive agents” (1986):
“And” between values parts separate entries of the source, which are not always exact repeats. Identical values can stand only once.

Legend:
Format in all cases: functional
[1] = system: Mus musculus; assay: Effect on the plaque forming cell formation in BDF1 mice after peroral administration at dose of 300 mg/kg; settings: route oral
[2] = system: Mus musculus; assay: Significant suppressive activity of delayed type hypersensitivity (DTH) with out inhibition of humoral immunity in mice by oral administration at dose of 400 mg/kg
[3] = system: Mus musculus; assay: Effect on the plaque forming cell formation in BDF1 mice after peroral administration at dose of 30 mg/kg; settings: route oral
[4] = system: Mus musculus; assay: Compound was tested for its significant suppressive activity of delayed type hypersensitivity (DTH) with out inhibition of humoral immunity in mice by oral administration at dose of 100 mg/kg
[5] = system: Mus musculus; assay: Effect on the plaque forming cell formation in BDF1 mice after peroral administration at dose of 100 mg/kg; settings: route oral
[6] = system: Mus musculus; assay: Compound was tested for its significant suppressive activity of delayed type hypersensitivity (DTH) with out inhibition of humoral immunity in mice by oral administration at dose of 200 mg/kg
[7] = system: Mus musculus; assay: Effect on the plaque forming cell formation in BDF1 mice after peroral administration at dose of 10 mg/kg; settings: route oral
[8] = system: Mus musculus; assay: Significant suppressive activity of delayed type hypersensitivity (DTH) with out inhibition of humoral immunity in mice by oral administration at dose of 50 mg/kg
[9] = system: Mus musculus; assay: Compound was tested for its significant suppressive activity of delayed type hypersensitivity (DTH) with out inhibition of humoral immunity in mice by oral administration at dose of 25 mg/kg

Structure (SMILES): Oc1cccc(-c2cn3c(n2)sc2ccccc23)c1
- PFC/splleen [1]: 0.182
- inhibition in vivo at 400 mg/kg [2]: 79%
- Increase in ear thickness ([2]; 400 mg/kg): 0.9 1/100mm and 1.3 1/100mm
- PFC/splleen [3]: 0.138
- Increase in ear thickness [4]: 2.4 1/100mm
- inhibition in vivo at 100 mg/kg [4]: 61.3%
- PFC/splleen [5]: 0.198
- Increase in ear thickness [6]: 2.8 1/100mm
- inhibition in vivo at 200 mg/kg [6]: 54.8%
- PFC/splleen [7]: 0.177
- inhibition in vivo at 50 mg/kg [8]: 37.1%
- Increase in ear thickness ([8]; 50 mg/kg): 3.4 1/100mm and 3.9 1/100mm
- Increase in ear thickness [9]: 5.3 1/100mm
